Data reported in paper PMC8303963, “Action of Multiple Rice β-Glucosidases on Abscisic Acid Glucose Ester” (International Journal of Molecular Sciences, 2021).

Molecular target: T1, Os9BGlu31 (Oryza sativa, UniProt B7F7K7)
T1 construct: gene BGLU31; recombinant from E. coli, IMAC purified
T1 sequence (B7F7K7 23-523): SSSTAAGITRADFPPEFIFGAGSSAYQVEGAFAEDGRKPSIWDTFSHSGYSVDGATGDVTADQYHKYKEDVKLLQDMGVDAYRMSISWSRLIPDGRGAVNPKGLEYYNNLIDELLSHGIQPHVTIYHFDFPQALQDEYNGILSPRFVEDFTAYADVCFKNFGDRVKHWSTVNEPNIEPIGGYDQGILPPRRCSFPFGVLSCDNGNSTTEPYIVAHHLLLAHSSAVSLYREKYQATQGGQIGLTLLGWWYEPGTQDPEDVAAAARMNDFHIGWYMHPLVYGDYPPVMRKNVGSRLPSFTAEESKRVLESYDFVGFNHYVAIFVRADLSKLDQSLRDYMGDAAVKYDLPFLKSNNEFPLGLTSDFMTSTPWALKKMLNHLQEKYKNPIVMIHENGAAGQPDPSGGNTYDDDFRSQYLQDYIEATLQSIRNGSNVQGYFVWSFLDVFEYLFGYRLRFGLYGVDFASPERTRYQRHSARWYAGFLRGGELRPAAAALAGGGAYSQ
Test: preparative transglucosylation, product by NMR and UHPLC
Format: biochemical
Settings: glucose acceptor; 10 mM ABA, 10 mM pNPGlc as donor, citrate buffer pH 4.5, 37 °C overnight

SMILES: CC1=CC(=O)CC(C)(C)[C@@]1(O)/C=C/C(C)=C\C(=O)O [ABA]
- preparative transglucosylation, product by NMR and UHPLC: used to transfer glucose from pNPGlc to ABA to generate ABA-GE
